Measurements published in patent US11407736B2 (priority 2019, dated 2022).
Where two headings read alike, the source gives them in different places.

Legend:
[1] = tested on: L929 cells; experiment: L929 cell necroptosis assay (TNFa + zVAD, CellTiter-Glo); type: cell-based, murine; conditions: Mus musculus
Method: (§1) In this example, U937 and L929 cells were exposed to compounds of the present disclosure and a cell necroptosis assay was conducted to evaluate the compounds' activity against human RIP1 and murine RIP1.
U937 and L929 cells were obtained from the American Type Culture Collection (Manassa, Va., USA). Both cells were maintained in logarithmic growth phase in complete RPMI 1640 media (Sigma, ST Louis, Mo., USA) supplemented with 10% fetal bovine serum (Sigma, ST Louis, Mo., USA) at 37° C. with 5% CO2. For necroptosis assay, L929 cells were plated for 18 h in 100 μL/well medium at 10K cells/well in Costar 96-well black clear-bottom plates (Fisher Scientific, Hampton, N.H., USA); U937 cells were plated on the day of the assay in 50 4/well medium containing 60 uM zVAD-fink (Lonza, Basel, Switzerland) at 50K cells/well. Medium from L929 cells were removed from the 96-well plates and replaced with 50 μL/well new medium containing 40 uM zVAD-fink. Each compound of the present disclosure evaluated in this example was serially diluted in DMSO from 2.5 mM in 4-fold dilutions, and then diluted 1:125 in complete medium. 50 μL/well 2× of the compound was then added to the cells in the plates. […] The relative amount of necroptosis cells was determined by luminescent using a Wallac Victor2 Luminometer (PerkinElmer, Waltham, Mass., USA) and a CellTiter-Glo® Luminescent Cell Viability Reagent Assay (Promega, Madison, Wis., USA) added per manufacturer instructions after 18 hours of TNFa stimulation at 37° C. with 5% CO2.

[2] = tested on: U937 cells; experiment: U937 cell necroptosis assay (TNFa + zVAD, CellTiter-Glo); type: cell-based, human; conditions: Homo sapiens
Method: as §1
U937 and L929 cells were obtained from the American Type Culture Collection (Manassa, Va., USA). Both cells were maintained in logarithmic growth phase in complete RPMI 1640 media (Sigma, ST Louis, Mo., USA) supplemented with 10% fetal bovine serum (Sigma, ST Louis, Mo., USA) at 37° C. with 5% CO2. For necroptosis assay, L929 cells were plated for 18 h in 100 μL/well medium at 10K cells/well in Costar 96-well black clear-bottom plates (Fisher Scientific, Hampton, N.H., USA); U937 cells were plated on the day of the assay in 50 4/well medium containing 60 uM zVAD-fink (Lonza, Basel, Switzerland) at 50K cells/well. Medium from L929 cells were removed from the 96-well plates and replaced with 50 μL/well new medium containing 40 uM zVAD-fink. Each compound of the present disclosure evaluated in this example was serially diluted in DMSO from 2.5 mM in 4-fold dilutions, and then diluted 1:125 in complete medium. 50 μL/well 2× of the compound was then added to the cells in the plates. The cells were pre-incubated with the compound for 1 hour at 37° C. with 5% CO2 and before addition of 10 μL/well 1 1×TNFa (Peprotech, Rocky Hill, N.J., USA) to give a final concentration of 2 ng/mL for TNFa. The relative amount of necroptosis cells was determined by luminescent using a Wallac Victor2 Luminometer (PerkinElmer, Waltham, Mass., USA) and a CellTiter-Glo® Luminescent Cell Viability Reagent Assay (Promega, Madison, Wis., USA) added per manufacturer instructions after 18 hours of TNFa stimulation at 37° C. with 5% CO2. This example establishes that embodiments of the compounds described herein have unexpectedly potent activity against human RIP1 and murine RIP1, which allows their assessment in in vivo mouse models of disease.

[3] = L929, L929 cells, TNFa + zVAD, read-out: L929-CTG-recovery, L929, TNFa + zVAD (IC50)
[4] = U-937, U937 cells, TNFa + zVAD, read-out: U937 Zvad TNF CTG Recovery, U937, TNFa + zVAD (IC50)

| Compound | IC50 [1, 3] [nM] | IC50 [2, 4] [nM] | IC50 ([1]; L929 cells, TNFa + zVAD, read-out: L929-CTG-recovery, L929, TNFa + zVAD (IC50)) [nM] | IC50 ([1]; L929, read-out: L929-CTG-recovery, L929, TNFa + zVAD (IC50), L929 cells, TNFa + zVAD) [nM] | IC50 ([2]; U-937, read-out: U937 Zvad TNF CTG Recovery, U937, TNFa + zVAD (IC50), U937 cells, TNFa + zVAD) [nM] |
| --- | --- | --- | --- | --- | --- |
| [2H]C([2H])([2H])C(O)(C#Cc1ccc2c(c1)N(C)C(=O)[C@@H](NC(=O)c1cc(Oc3ccccc3)ccn1)CO2)C([2H])([2H])[2H] [Compound I-68, (S)—N-(7-(3-hydroxy-3-(methyl-d3)but-1-yn-1-yl-4,4,4-d3)-5-methyl-4-oxo-2,3,4,5-tetrahydrobenzo[b][1,4]oxazepin-3-yl)-4-phenoxypicolinamide] | 0.3 | 0.7 |  |  |  |
| [2H]C([2H])([2H])C(O)(C#Cc1ccc2c(c1)N(C)C(=O)[C@@H](NC(=O)c1n[nH]c(Cc3ccccc3)n1)CO2)C([2H])([2H])[2H] [Compound I-69, (S)-5-benzyl-N-(7-(3-hydroxy-3-(methyl-d3)but-1-yn-1-yl-4,4,4-d3)-5-methyl-4-oxo-2,3,4,5-tetrahydrobenzo[b][1,4]oxazepin-3-yl)-1H-1,2,4-triazole-3-carboxamide] | 0.9 | 2.2 |  |  |  |
| CN1C(=O)[C@@H](NC(=O)c2n[nH]c(Cc3ccccc3)n2)COc2ccc(/C=C(\Cl)C(C)(C)O)cc21 [Compound I-94, (S,Z)-5-benzyl-N-(7-(2-chloro-3-hydroxy-3-methylbut-1-en-1-yl)-5-methyl-4-oxo-2,3,4,5-tetrahydrobenzo[b][1,4]oxazepin-3-yl)-1H-1,2,4-triazole-3-carboxamide] |  | 22 | 4.6 |  |  |
| CN1C(=O)[C@@H](NC(=O)c2cc(Oc3ccccc3)ccn2)COc2ccc(C#CC3(O)COC3)cc21 [Compound I-110, (S)—N-(7-((3-hydroxyoxetan-3-yl)ethynyl)-5-methyl-4-oxo-2,3,4,5-tetrahydrobenzo[b][1,4]oxazepin-3-yl)-4-phenoxypicolinamide] | 18.8 | 0.4 |  |  |  |
| CN1C(=O)[C@H](NC(=O)c2cc(Oc3ccccc3)ccn2)COc2ccc(C#CC(C)(C)O)cc21 [Compound I-113, (R)—N-(7-(3-hydroxy-3-methylbut-1-yn-1-yl)-5-methyl-4-oxo-2,3,4,5-tetrahydrobenzo[b][1,4]oxazepin-3-yl)-4-phenoxypicolinamide] | 2340 | 31.5 |  |  |  |
| CN1C(=O)[C@@H](NC(=O)c2cc(Oc3ccccc3)ccn2)COc2ccc(C#CC3(F)CNC3)cc21 [Compound I-143] |  |  |  | 197 | 3.5 |
| CC(C)N1CC(F)(C#Cc2ccc3c(c2)N(C)C(=O)[C@@H](NC(=O)c2cc(Oc4ccccc4)ccn2)CO3)C1 [Compound I-166, (S)—N-(7-((3-fluoro-1-isopropylazetidin-3-yl)ethynyl)-5-methyl-4-oxo-2,3,4,5-tetrahydrobenzo[b][1,4]oxazepin-3-yl)-4-phenoxypicolinamide] | 27.7 | 1 |  |  |  |
| CN1C(=O)[C@@H](NC(=O)c2cc(Oc3ccccc3)ccn2)COc2ccc(C#CC3(F)CN(CC(F)(F)F)C3)cc21 [Compound I-168, (S)—N-(7-((3-fluoro-1-(2,2,2-trifluoroethyl)azetidin-3-yl)ethynyl)-5-methyl-4-oxo-2,3,4,5-tetrahydrobenzo[b][1,4]oxazepin-3-yl)-4-phenoxypicolinamide] | 103 | 0.9 |  |  |  |
| CN1C(=O)[C@@H](NC(=O)c2cc(Oc3ccccc3)ccn2)COc2ccc(C#CC3(F)CN(CC4CC4)C3)cc21 [Compound I-169, (S)—N-(7-((1-(cyclopropylmethyl)-3-fluoroazetidin-3-yl)ethynyl)-5-methyl-4-oxo-2,3,4,5-tetrahydrobenzo[b][1,4]oxazepin-3-yl)-4-phenoxypicolinamide] | 148 | 2.2 |  |  |  |
| CN1C(=O)[C@@H](NC(=O)c2cc(Oc3ccc(F)cc3)ccn2)COc2ccc(C#CC(C)(C)COC(=O)CCC(=O)O)cc21 [Compound I-170, (S)-4-((4-(3-(4-(4-fluorophenoxy)picolinamido)-5-methyl-4-oxo-2,3,4,5-tetrahydrobenzo[b][1,4]oxazepin-7-yl)-2,2-dimethylbut-3-yn-1-yl)oxy)-4-oxobutanoic acid] | 1840 | 14.8 |  |  |  |
| C[C@H](N)C(=O)OCC(C)(C)C#Cc1ccc2c(c1)N(C)C(=O)[C@@H](NC(=O)c1cc(Oc3ccc(F)cc3)ccn1)CO2 [Compound I-171, 4-((S)-3-(4-(4-fluorophenoxy)picolinamido)-5-methyl-4-oxo-2,3,4,5-tetrahydrobenzo[b][1,4]oxazepin-7-yl)-2,2-dimethylbut-3-yn-1-yl L-alaninate] | 394 | 6.4 |  |  |  |
| CC(C)[C@H](N)C(=O)OCC(C)(C)C#Cc1ccc2c(c1)N(C)C(=O)[C@@H](NC(=O)c1cc(Oc3ccc(F)cc3)ccn1)CO2 [Compound I-172, 4-((S)-3-(4-(4-fluorophenoxy)picolinamido)-5-methyl-4-oxo-2,3,4,5-tetrahydrobenzo[b][1,4]oxazepin-7-yl)-2,2-dimethylbut-3-yn-1-yl L-valinate] | 850 | 22.1 |  |  |  |
| CN1C(=O)[C@@H](NC(=O)c2cc(Oc3ccccc3)ccn2)COc2ccc(C#CC(C)(C)COP(=O)(O)O)cc21 [Compound I-173, (S)-2,2-dimethyl-4-(5-methyl-4-oxo-3-(4-phenoxypicolinamido)-2,3,4,5-tetrahydrobenzo[b][1,4]oxazepin-7-yl)but-3-yn-1-yl dihydrogen phosphate] | 2860 | 48.5 |  |  |  |
| CN1C(=O)[C@@H](NC(=O)c2cc(Oc3ccc(F)cc3)ccn2)COc2ccc(C#CC(C)(C)COP(=O)(O)O)cc21 [Compound I-174, (S)-4-(3-(4-(4-fluorophenoxy)picolinamido)-5-methyl-4-oxo-2,3,4,5-tetrahydrobenzo[b][1,4]oxazepin-7-yl)-2,2-dimethylbut-3-yn-1-yl dihydrogen phosphate] | 16500 | 438 |  |  |  |
| [2H]c1c([2H])c([2H])c(Oc2ccnc(C(=O)N[C@H]3COc4ccc(C#CC5(O)COC5)cc4N(C)C3=O)c2)c([2H])c1[2H] [Compound I-190, (S)—N-(7-((3-hydroxyoxetan-3-yl)ethynyl)-5-methyl-4-oxo-2,3,4,5-tetrahydrobenzo[b][1,4]oxazepin-3-yl)-4-(phenoxy-d5)picolinamide] |  | 0.6 |  |  |  |
| CN1C(=O)[C@@H](NC(=O)c2cc(Oc3ccccc3)ccn2)COc2ccc(C#CC3(O)CN(CC4CC4)C3)cc21 [Compound I-196, (S)—N-(7-((1-(cyclopropylmethyl)-3-hydroxyazetidin-3-yl)ethynyl)-5-methyl-4-oxo-2,3,4,5-tetrahydrobenzo[b][1,4]oxazepin-3-yl)-4-phenoxypicolinamide] | 201 | 3.3 |  |  |  |
| CC(=O)N1CC(O)(C#Cc2ccc3c(c2)N(C)C(=O)[C@@H](NC(=O)c2cc(Oc4ccccc4)ccn2)CO3)C1 [Compound I-197, (S)—N-(7-((1-acetyl-3-hydroxyazetidin-3-yl)ethynyl)-5-methyl-4-oxo-2,3,4,5-tetrahydrobenzo[b][1,4]oxazepin-3-yl)-4-phenoxypicolinamide] | 70.6 | 0.7 |  |  |  |
| CCNC(=O)N1CC(O)(C#Cc2ccc3c(c2)N(C)C(=O)[C@@H](NC(=O)c2cc(Oc4ccccc4)ccn2)CO3)C1 [Compound I-198, (S)—N-(7-((1-(ethylcarbamoyl)-3-hydroxyazetidin-3-yl)ethynyl)-5-methyl-4-oxo-2,3,4,5-tetrahydrobenzo[b][1,4]oxazepin-3-yl)-4-phenoxypicolinamide] | 39.1 | 0.9 |  |  |  |
